Results taken from patent US7033829B2, “Method to inhibit cell growth using oligonucleotides” (Trustees of Boston University, priority 2000, dated 2006).
Oligonucleotides are written 5' to 3', each unit as a sugar letter and its base; * is a phosphorothioate linkage, no mark a phosphodiester; rarer units and linkages stand in square brackets, end groups in braces. Plain capitals give the bases only. d = 2'-deoxy (DNA); {P} = phosphate

Columns and labels:
p95/Nbs1 = experiment: Modification / phosphorylation of p95/Nbs1 (western blot); type: cell-based, human
Protocol: Cells were plated at a density of 180,000 cells/ml in RPMI 1640 medium supplemented with 3% FBS. Cells were treated with 40 μM of either of the oligonucleotides for 72 hours. Cells were then collected, washed and fixed for 30 minutes in 4% paraformaldehyde and then permeabilized with 0.1% Triton X-100 for 2 minutes. The TUNEL assay was carried out with components and instructions of the In Situ Cell Death Detection Kit using fluorescein-labeled dUTP from Boehringer Mannheim. TUNEL-positive cells were detected by FACS analysis and confocal microscopy. Cellular Uptake of Oligonucleotides For confocal analysis, Jurkat cells were plated on Permanox chamber slides (Lab-Tek, Naperville, Ill.) and treated for 4 hours with fluorescein phosphoramidite (FAM)-labeled oligonucleotides (Research Genetics, Inc., Huntsville, Ala.). […] Uptake of the oligonucleotides was assessed in 5–10 μm sections with a Carl Zeiss LSM 510 confocal laser microscope. […] Fluorescence was measured on the FL-1 channel. […] Antibody Ab-6 (DO-1 clone, Oncogene Research Products, Cambridge, Mass.) detected p53; antibody KH95 (Santa Cruz Biotechnology, Inc., Santa Cruz, Calif.) detected E2F1; antibody Ab-4 (Oncogene Research products) detected p73. Phospho-p53 (serine 15) was detected using the #9284 polyclonal antibody and phospho-p95/Nbs1 (serine 343) was detected by a phospho-p95/Nbs1-specific polyclonal antibody, both antibodies from Cell Signaling Technology (Beverly, Mass.). p95/Nbs1 antibody (#NB-100-143, Novus Biologicals, Littleton, Colo.) and an actin antibody (I-19, Santa Cruz Biotechnology, Santa Cruz, Calif.) were also used. […] After the indicated times, total protein was collected and analyzed by 8% PAGE and western blot using a polyclonal antibody to p95/Nbs1 (#NB-100-143, Novus Biologicals, Littleton, Colo.). […] Telomere length was determined essentially as described by van Steensel and de Lange (van Steensel, B. and T. de Lange. 1997, Nature 385: 740–743) using the Telo TAGGG Telomere Length Assay from Roche Molecular Biochemicals (Indianapolis, Ind.) and the protocol supplied by the manufacturer. […]

contact hypersensitivity = experiment: Contact hypersensitivity to DNFB (ear swelling); type: in vivo, C57B16 mice; settings: 30 μl of 100 μM BID×5d topical to abdominal skin before sensitization
Protocol: C57B16 mice were subjected to the following treatment prior to sensitization with the allergen DNFB, by topical administration to abdominal skin; no pretreatment, UVB irradiation (200 J/m^2/dx4d), pTpT, pApA, or vehicle alone (30 μl of 100 μM BID×5d).

SDI 1 mRNA = SDI 1 mRNA in H1299 cells with or without p53 expression vector; type: cell-based, human; settings: 100 μM, 24 hours
Protocol: Preconfluent cultures of H1299 cells were transfected with an expression vector containing the wild type human p53 cDNA under the control of the human cytomegalovirus promoter/enhancer (Dr. Bert Vogelstein, Johns Hopkins Oncology Center). Control transfections were performed using the vector from which the p53 cDNA was removed. Transfections were carried out using the Lipofectin Reagent Kit (GIBCO/BRL). One day after transfection, cells were collected for Western blot analysis using 20 μg total protein as described (Yaar, M. et al., J. Clin. Invest. 94:1550–1562 (1994)). p53 was detected using mAb 421, anti-mouse Ig linked to horseradish peroxidase (Amersham, Arlington Heights, Ill.) and an ECL-kit (Amersham), following the directions of the manufacturer. At the time of protein collection, duplicate cultures of H1299 cells transfected with the p53 expression vector (designated “p53”) or control vector (“Ctrl”) were given either diluent (DMEM) or 100 μM pTpT. After 24 hours, the cells were collected, processed for RNA isolation and Northern blot analysis with an SDI 1 cDNA probe. The autoradiograph was scanned using a Macintosh IIsi computer and Macintosh One Scanner, and the brightness and contrast were adjusted to display differences in autoradiographic signals maximally. […]

[1] = tested on: basal keratinocytes (epidermal cell proliferation); experiment: Epidermal labeling index after topical application; type: in vivo, Guinea pigs; settings: 100 μM topical, three days, mean ± SD
Protocol: Guinea pigs received one or two daily topical applications of 100 μM pTpT, or vehicle alone as control, for three days. On the fourth day, punch biopsies were obtained and maintained for 7 or 8 hours in primary keratinocyte medium supplemented with 10 μCi/ml ^3H-thymidine (specific activity 9.0 Ci/m mole, NEN). Proliferating cells are expected to incorporate the ^3H-thymidine into newly synthesized DNA. Tissues were then rinsed with cold medium and fixed in 10% phosphate buffered formalin. After a series of dehydration steps, tissues were embedded in paraffin. 6 μm sections were cut and mounted onto glass slides, dipped in NTB-2 Nuclear Track emulsion and kept in the dark at 4° C. for 7 days. Sections were developed in Kodak D-19 developer and stained with hematoxylin and eosin. Labeling index, a measure of DNA replication and therefore cell proliferation, was measured by calculating the percentage of labeled nuclei among 100 basal keratinocytes.

Substance	shift in p95/Nbs1 migration (p95/Nbs1; Jurkat cells, 48, 72 and 96 hours)	shift in p95/Nbs1 migration (p95/Nbs1; SCC12F cells)	phosphorylation of p95/Nbs1 (phospho-specific antibody) (p95/Nbs1; fibroblasts)	ear swelling responses to DNFB challenge (contact hypersensitivity)	level of SDI 1 transcript (SDI 1 mRNA; H1299 transfected with wild-type p53 expression vector)	level of SDI 1 transcript (SDI 1 mRNA; p53-null H1299 cells)	Labeling Index (percentage of labeled nuclei among 100 basal keratinocytes) ([1]; 1 daily application)	Labeling Index (percentage of labeled nuclei among 100 basal keratinocytes) ([1]; 2 daily applications)
pGTTAGGGTTAG (DNA {P}-dGdTdTdAdGdGdGdTdTdAdG) [SEQ ID NO: 5]	detects such a shift in p95/Nbs1 migration	respond identically	phosphorylation of p95/Nbs1 is induced	–	–	–	–	–
thymidine dinucleotide [pTpT]	–	–	–	0.9±0.3	inducible by addition of pTpT	not affected by addition of pTpT	2 ± 0	1.5 ± 0.7
